Assay results: patent US20090130236A1, “ANTI-MICROBIAL AGENT AND ANTI-MICROBIAL COMPOSITION” (Hououdou Co., Ltd., priority 2002, published 2009)
Converted amounts (≈) assume the structure as drawn. Where two headings read alike, the source gives them in different places.

Key:
[1] = test system: Staphylococcus spp. (44 Strains); assay: MIC, agar plate dilution, Test Example 22; type: cell-based
Text: Strains Used: There were used 44 strains of Staphylococcus spp. […] Sterilized distilled water was used in the dilution of the solution.

[2] = test system: clinically isolated 26 strains of P. acnes; assay: MIC, agar plate dilution, Test Example 10; type: cell-based, Propionibacterium acnes; conditions: reference data, not obtained through tests simultaneously carried out
[3] = Staphylococcus, read-out: MIC50
[4] = Staphylococcus, read-out: MIC80
[5] = Cutibacterium acnes, read-out: MIC50
[6] = Cutibacterium acnes, read-out: MIC80

| Structure (SMILES) | MIC50 [1, 3] | MIC80 [1, 4] | MIC50 [2, 5] | MIC80 [2, 6] | MIC50 [1] | MIC80 [1] | MIC50 [2] | MIC80 [2] |
| --- | --- | --- | --- | --- | --- | --- | --- | --- |
| CCC[C@@H]1C[C@@H](C(=O)N[C@@H]([C@H]2O[C@H](SC)[C@H](O)[C@@H](O)[C@H]2O)[C@H](C)Cl)N(C)C1 [CLDM, Clindamycin] |  |  |  |  | 0.10 µg/mL (≈ 0.235 µM) | >100 µg/mL | 0.10 µg/mL (≈ 0.235 µM) | 0.19 µg/mL (≈ 0.447 µM) |
| CN(C)[C@@H]1C(=O)C(C(N)=O)=C(O)[C@@]2(O)C(=O)C3=C(O)c4c(O)cccc4[C@@](C)(O)[C@H]3C[C@@H]12 [TC, Tetracycline] |  |  |  |  | 0.39 µg/mL (≈ 0.878 µM) | 25 µg/mL (≈ 56.3 µM) | 0.19 µg/mL (≈ 0.428 µM) | 0.19 µg/mL (≈ 0.428 µM) |

Second part, led by results:

| MIC50 [1, 3] | MIC80 [1, 4] | MIC50 [2, 5] | MIC80 [2, 6] | Structure (SMILES) | MIC50 [1] | MIC80 [1] | MIC50 [2] | MIC80 [2] |
| --- | --- | --- | --- | --- | --- | --- | --- | --- |
| 0.1 µg/mL (≈ 0.219 µM) | 0.1 µg/mL (≈ 0.219 µM) | 0.05 µg/mL (≈ 0.109 µM) | 0.1 µg/mL (≈ 0.219 µM) | CN(C)c1ccc(O)c2c1C[C@H]1C[C@H]3[C@H](N(C)C)C(O)=C(C(N)=O)C(=O)[C@@]3(O)C(O)=C1C2=O [MINO, Minocycline] |  |  |  |  |
| 0.05 µg/mL (≈ 0.139 µM) | 0.78 µg/mL (≈ 2.16 µM) | 0.19 µg/mL (≈ 0.527 µM) | 0.19 µg/mL (≈ 0.527 µM) | CC1CCc2c(N3CCC(O)CC3)c(F)cc3c(=O)c(C(=O)O)cn1c23 (centres unmarked) [NDFX, Nadifloxacin] |  |  |  |  |
| 0.39 µg/mL (≈ 1.08 µM) | 0.78 µg/mL (≈ 2.16 µM) | 0.39 µg/mL (≈ 1.08 µM) | 0.39 µg/mL (≈ 1.08 µM) | CC1COc2c(N3CCN(C)CC3)c(F)cc3c(=O)c(C(=O)O)cn1c23 (centres unmarked) [OFLX, Ofloxacin] |  |  |  |  |
